Read-outs that look alike come from different tables or passages of the source.
Legend:
[1] = system: MCF-7 breast cancer cells; assay: alamarBlue cell viability assay; format: cell-based; conditions: Homo sapiens
Description: Figure 5 Preliminary cell viability data for Series 1: (A) compounds 22a–22g and chalcone 20b and Series 2: (B) compounds 23a–e and chalcone 20b in MCF-7 breast cancer cells. Cell proliferation of MCF-7 cells was determined with an alamarBlue assay (seeding density 2.5 × 10^4 cells/mL per well for 96-well plates). Compound concentrations of either 1 or 0.1 μM for 72 h were used to treat the cells (in triplicate) with control wells containing vehicle ethanol (1% v/v). The mean value ± SEM for three independent experiments is shown. The positive controls used are CA-4 and phenstatin (1.0 μM and 0.1 μM). Statistical analysis was performed using One-way ANOVA with the Sidak multiple comparison test (***, p < 0.001).
HL-60 cells were suspension cells and the seeding density for the viability assay was 25,000 cells/mL. MCF-7 cells (adherent) were cultured in Minimum Essential Media (MEM) with GlutaMAX™-I, supplemented with 1% (v/v) non-essential amino acids, 10% (v/v) fetal bovine serum (FBS), purchased from BD Biosciences (Edmund Halley Road, Oxford, UK), and 1% (v/v) penicillin/streptomycin 5000 U/mL. The MCF-7 cells used in the screening of the compounds during these experiments were mycoplasma-free. The seeding density of MCF-7 in the viability assay was 25,000 cells/mL and 50,000 cells/mL in the FACS assay. Normal breast cells (MCF-10A) (adherent) were cultured in Dulbecco’s Modified Eagle Medium: Nutrient Mixture F-12 (DMEM/F12; Gibco) supplemented with 5% horse serum (Invitrogen, Waltham, MA, USA), 20 ng/mL epidermal growth factor (Merck Millipore, Burlington, MA, USA), 0.5 μg/mL hydrocortisone (Sigma, Kanagawa, Japan), 100 ng/mL cholera toxin (Sigma), 10 μg/mL insulin (Sigma), and penicillin/streptomycin 5000 U/mL (1%) (Gibco, Waltham, MA, USA). […] MDA-MB-231 cells were cultured in Dulbecco’s Modified Eagle Medium, which was supplemented with 10% (v/v) fetal bovine serum (FBS) and 1% (v/v) penicillin/streptomycin 5000 U/mL. When not in use, all cells were kept in liquid nitrogen and frozen in a freezing media made of 90% FBS and 10% DMSO. All cells were grown in an atmosphere of 5% CO2/95% air in T75 culture flasks. The media was changed every 2–3 days and media was always prewarmed to 37 °C. All were sub-cultured every 3–4 days by trypsinization using TrypLE™ Express enzyme when confluence was reached to allow growth, prevent excessive cell death, and minimize the risk of infections derived by over-confluence. For the cell viability assay, the number of cells per milliliter was 25,000 cells/mL while the FACS assay utilized 50,000 cells/mL. Cells were maintained at 37 °C in 5% CO2 in a humidified incubator.
The biochemical assays were performed in triplicate and on at least three independent occasions to facilitate the determination of mean values. For the viability assay, cells were grown until 80% confluent. Adherent cells such as MCF-7, MDA-MB-231, and MCF-10A were trypsinized to detach them from the flask, counted as previously described, and seeded in 96 well plates with a seeding density of 25,000 cells /mL (200 µL of suspension in each well so that the final number of cells per well was 5000) and 1 × 10^4 cells/well seeding density for suspension HL-60 cells. Adherent cells were incubated for 24 h after being seeded in the 96 well plate and treated on the following day, while suspension cells were treated on the same day of the seeding. In both cases, the incubation time after the treatment with the drug was 72 h. After 68 h incubation, the AlamarBlue was added (20 µL in each well) and the incubation time was completed. After 72 h, the change in color was measured by spectrofluorimetry at an excitation wavelength of 544 nm and emission wavelength of 590 nm. AlamarBlue is a cell viability indicator containing a compound called resazurin. AlamarBlue is water soluble, stable in culture media, non-toxic, and is permeable through the cell membrane. […]

[2] = system: tubulin in MCF-7 breast cancer cells; assay: Immunofluorescence confocal microscopy of microtubules; format: cell-based, human; conditions: 16 h, 22b 10 μM, paclitaxel and phenstatin 1 μM
Description: Briefly, the MCF-7 cells were seeded at a density of 1 × 10^5 cells/mL on eight chamber glass slides (BD Biosciences). […] The cells were then washed in PBS, fixed for 20 min with 4% paraformaldehyde in PBS, and permeabilized in 0.5% Triton X-100. […] Images of the cells were obtained using Leica SP8 confocal microscopy (Wetzlar, Germany) with Leica application suite X software (Wetzlar, Germany). Experiments were performed on three independent occasions.
The micrograph images were obtained with Leica SP8 confocal microscopy utilizing Leica application suite X software. Representative confocal images of three separate experiments are shown. The scale bar indicates 25 μm.

[3] = system: K562 human chronic myelogenous leukemia cell line; design: method as in PMID 19837593; conditions: cited from earlier work
[4] = system: MCF-7 breast cancer cells; conditions: cited from earlier work
HL-60 cells = conditions: reported values; cited from earlier work
[5] = system: MDA-MB-231 breast cancer cells; conditions: reported values; cited from earlier work
MCF-7 cells = system: MCF-7 cells; design: method as in PMID 33671674; conditions: 1 μM, cited from earlier work
[6] = system: MCF-7 breast cancer cells; design: method as in PMID 33671674; conditions: cited from earlier work
[7] = system: purified bovine brain tubulin; design: method as in PMID 33671674; conditions: 10 μM; cited from earlier work
[8] = system: MDA-MB-231 breast cancer cells; design: method as in PMID 33671674; conditions: cited from earlier work
[9] = MCF7, MCF-7, 1 μM, 72 h, read-out: viable cells

## COc1ccc(/C=C/C(c2cc(OC)c(OC)c(OC)c2)n2cncn2)cc1OC (stereo not shown) [Compound 22d, (E)-1-(3-(3,4-Dimethoxyphenyl)-1-(3,4,5-trimethoxyphenyl)allyl)-1H-1,2,4-triazole]
[1]; [9]
  viability at 1 µM: 74%

## C(=C\C(c1ccncc1)n1ccnc1)/c1c2ccccc2cc2ccccc12 (stereo not shown) [Compound 33b, (E)-4-(3-(Anthracen-9-yl)-1-(1H-imidazol-1-yl)allyl)pyridine]
[1]; [9]
  viability at 1 µM: 92%

## COc1cc(/C=C/C(c2cc(OC)c(OC)c(OC)c2)n2cncn2)cc(OC)c1OC (stereo not shown) [Compound 22c, (E)-1-(1,3-Bis(3,4,5-trimethoxyphenyl)allyl)-1H-1,2,4-triazole]
[1]; [9]
  viability at 1 µM: 70%

## CC(=O)O[C@H]1C(=O)[C@@]2(C)[C@H]([C@H](OC(=O)c3ccccc3)[C@]3(O)C[C@H](OC(=O)[C@H](O)[C@@H](NC(=O)c4ccccc4)c4ccccc4)C(C)=C1C3(C)C)[C@]1(OC(C)=O)CO[C@@H]1C[C@@H]2O [paclitaxel]
[2]
  effect on microtubule network: hyperpolymerization of tubulin

## COc1ccc(/C=C(\C)C(=O)c2cc(OC)c(OC)c(OC)c2)cc1O [Compound 16a]
[3]
  IC50: 0.21 nM

## COc1ccc(/C=C/C(=O)c2cc(OC)c(OC)c(OC)c2)cc1O [Compound 20b, (E)-3-(3-hydroxy-4-methoxyphenyl)-1-(3,4,5-trimethoxyphenyl)prop-2-en-1-one, reference compound]
[1]; MCF7, MCF-7, 72 h
  IC50: 67 ± 17 nM

## COc1ccc(/C=C\c2cc(OC)c(OC)c(OC)c2)cc1O [CA-4, combretastatin CA-4]
[4]
  IC50: 4 nM
[4]; reported values
  IC50: 3.9 ± 0.32 nM
HL-60 cells
  IC50: 1.9 ± 0.5 nM
[1]; [9]
  viability at 1 µM: 24%
[5]
  IC50: 43 nM

## COc1ccc(C2CC(=O)c3cc(OC)c(OC)c(OC)c32)cc1O (stereo not shown) [Compound 24a, 3-(3-Hydroxy-4-methoxyphenyl)-4,5,6-trimethoxy-2,3-dihydro-1H-inden-1-one, reference compound]
[1]; MCF7, MCF-7, 0.1 μM, 72 h, read-out: viable cells
  viability at 0.1 µM: 70%
[1]; [9]
  viability at 1 µM: 35%

## COc1ccc(C(=O)c2cc(OC)c(OC)c(OC)c2)cc1O [phenstatin]
[4]
  IC50: 34 nM
MCF-7 cells; 24 h
  cells in G2/M phase: 65%
MCF-7 cells; 48 h
  cells in G2/M phase: 57%
MCF-7 cells; 72 h
  cells in G2/M phase: 51%
  cells in apoptosis (sub-G1): 18%
[2]
  effect on microtubule network: depolymerization of tubulin
[6]; 0.1 μM
  total apoptosis: 36.1%
[6]; 0.5 μM
  total apoptosis: 46%
[7]
  reduction in the polymer mass vs vehicle: 10 fold
[8]; 0.1 μM
  total apoptosis: 16.6%
[8]; 0.5 μM
  total apoptosis: 17.9%
[1]; MCF7, 72 h, read-out: viable cells
  viability at 1 µM: 30%

— publication PMC11769294, “(E)-1-(3-(3-Hydroxy-4-Methoxyphenyl)-1-(3,4,5-Trimethoxyphenyl)allyl)-1H-1,2,4-Triazole and Related Compounds: Their Synthesis and Biological Evaluation as Novel Antimitotic Agents Targeting Breast Cancer” (Pharmaceuticals, 2025)
